Data published in US6403590B1, “Use of certain isoquinolinesulfonyl compounds for the treatment of glaucoma and ocular ischemia” (Alcon Laboratories, Inc., priority 1995, dated 2002).

How the values were obtained:
[1] = tested on: Bulbar Conjunctiva (conjunctival hyperemia); experiment: Guinea pig conjunctival hyperemia model; type: in vivo; conditions: cumulative incidence; percent of eyes scoring +2 or more; scored 1, 2, 3, 4 hours after instillation
Protocol: A guinea pig model was used to assess the potential of the compounds to cause conjunctival hyperemia as measured by vasodilation. Compound was instilled and hyperemia was scored at 1, 2, 3, and 4 hours following dosing. Reported above is the cumulative incidence of hyperemia over the 4 hour period. Incidence of hyperemia (Bulbar Conjunctiva) was calculated as the percent of eyes scoring +2 or more, according to the following graded scale: 0 Normal appearance of vessels at limbus and rectus muscle 1 Enlargement of vessels normally visible at limbus and rectus muscle 2 Branching of vessels at limbus, additional vessels visible 3 Additional vessels visible in open bulbar conjunctival areas 4 Diffuse redness in open bulbar conjunctival areas

[2] = tested on: laser-induced hypertensive primates; experiment: IOP in laser-induced ocular hypertensive monkeys (lasered MIOP), topical dosing; type: in vivo, monkey; conditions: for MIOP IOP % Reduction, 1 hour: 1 hour post-dose; for MIOP IOP % Reduction, 3 hours: 3 hours post-dose; for MIOP IOP % Reduction, 6 hours: 6 hours post-dose
Protocol: Monkey intraocular pressure (MIOP) were obtained from laser-induced hypertensive primates in the manner described in Examples 1 and 4 below at 1, 3, and 6 hours post-dose.
(§1) The hydrochloride salt of Compound II, also known as fasudil hydrochloride or just fasudil, was topically administered to eyes of ocular normotensive and hypertensive monkeys, New Zealand Albino (NZA) and Dutch Belted (DB) rabbits.

[3] = tested on: ocular normotensive monkey; experiment: IOP in ocular normotensive monkeys, topical dosing; type: in vivo, cynomolgus monkey
Protocol: as §1
The effect of repeated doses of Compound II on the magnitude and duration of IOP reduction was evaluated in ocular normotensive monkeys.

Dutch Belted (DB) rabbit = experiment: IOP in Dutch Belted rabbits, topical dosing; type: in vivo
Protocol: as §1
Compound II (hydrochloride) was administered topically to the eyes of Dutch Belted (DB) rabbits in doses of 75 and 150 μg.

[4] = tested on: New Zealand Albino (NZA) rabbit; experiment: IOP in New Zealand Albino rabbits, topical dosing; type: in vivo; conditions: four hour dose response
Protocol: as §1
A dose study similar to that described in Example 2 was conducted with the NZA rabbit. Compound II (hydrochloride) was administered in a topical ocular fashion in doses of 50, 125 and 250 μg.
Other isoquinolinesulfonamides were topically administered to the eyes of New Zealand Albino (NZA) rabbits.
All drugs were administered to eyes in a topical manner at a dose=500 μg (2×25 μl). All compounds were formulated in phosphate buffered saline containing 0.01% benzalkonium chloride, and in all instances N=7.

## O=S(=O)(c1cccc2c(Cl)nccc12)N1CCNCC1 [1-(1-chloro-5-isoquinolinesulfonyl)-piperazine]
[1]
  Guinea Pig Hyperemia (Cumulative over 4 hours): 10%
[2]; dose 500 μg
  MIOP IOP % Reduction, 1 hour: 7.9%
  MIOP IOP % Reduction, 3 hours: 11.9%
  MIOP IOP % Reduction, 6 hours: 9.4%

## CC1CN(S(=O)(=O)c2cccc3cnccc23)C(C)CN1 (stereo not shown) [D, 1-(5-isoquinolinesulfonyl)-2,5-dimethylpiperazine]
[1]
  Guinea Pig Hyperemia (Cumulative over 4 hours): 20%
[2]; dose 500 μg
  MIOP IOP % Reduction, 1 hour: 36.3%
  MIOP IOP % Reduction, 3 hours: 32.8%
  MIOP IOP % Reduction, 6 hours: 19.3%
[2]; laser-induced hypertensive primates, compared with the other compounds of Example E
  IOP lowering effect: markedly superior IOP lowering effect

## CC1CN(S(=O)(=O)c2cccc3cnccc23)CCN1 (stereo not shown) [Example H-7, 1-(5-isoquinolinesulfonyl)-3-methylpiperazine]
[1]
  Guinea Pig Hyperemia (Cumulative over 4 hours): 0%
[2]; dose 1000 μg
  MIOP IOP % Reduction, 1 hour: 30.9%
  MIOP IOP % Reduction, 3 hours: 20.9%
  MIOP IOP % Reduction, 6 hours: 11.6%

## O=S(=O)(c1cccc2cnccc12)N1CCCNCC1 [Fasudil, hexahydro-1-(5-isoquinolinylsulfonyl)-1H-1,4-diazepine]
[1]
  Guinea Pig Hyperemia (Cumulative over 4 hours): 75%
[2]; dose 500 μg
  MIOP IOP % Reduction, 1 hour: 21.9%
  MIOP IOP % Reduction, 3 hours: 14.6%
  MIOP IOP % Reduction, 6 hours: 23.4%
[2]; ocular hypertensive (laser-induced) primates, topical
  IOP lowering: effectively lowered IOP
[3]; ocular normotensive monkeys, total of 900 μg in three doses, ten minutes apart
  IOP reduction after repeated doses: significant IOP reduction
[3]; ocular normotensive primates, topical
  IOP lowering: effectively lowered IOP
Dutch Belted (DB) rabbit
  IOP lowering: lowered IOP in the DB rabbit; however, the reduction in IOP was not sustained
[4]
  IOP lowering: IOP was marketedly lowered below base line
